From PubChem BioAssay (NCI)
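How tested: cells in 96-well plates exposed to compound for 48 hours at five concentrations. Here, GI50 denotes the concentration required for 50% inhibition of growth. TGI: total growth inhibition.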

How the values were obtained:
Test in all cases: NCI anticancer screen, dose series, 48 h
UACC-257 melanoma = system: UACC-257 melanoma
MCF7 breast = system: MCF7 breast
SR leukemia = system: SR leukemia
SK-OV-3 ovarian = system: SK-OV-3 ovarian
EKVX NSCLC = system: EKVX NSCLC
HS 578T breast = system: HS 578T breast
A549 NSCLC = system: A549 NSCLC
NCI-H226 lung = system: NCI-H226 lung
OVCAR-3 ovarian = system: OVCAR-3 ovarian
SF-295 CNS = system: SF-295 CNS
NCI-H460 lung = system: NCI-H460 lung
TK-10 renal = system: TK-10 renal
MALME-3M melanoma = system: MALME-3M melanoma
HOP-62 NSCLC = system: HOP-62 NSCLC
HT29 colon = system: HT29 colon
MDA-MB-435 = system: MDA-MB-435
OVCAR-5 ovarian = system: OVCAR-5 ovarian
HCT-116 colon = system: HCT-116 colon
SNB-19 CNS = system: SNB-19 CNS
SN12C renal = system: SN12C renal
M14 melanoma = system: M14 melanoma
BT-549 breast = system: BT-549 breast
A498 renal = system: A498 renal
SK-MEL-28 melanoma = system: SK-MEL-28 melanoma
SF-268 CNS = system: SF-268 CNS
HL-60(TB) leukemia = system: HL-60(TB) leukemia
NCI/ADR-RES ovarian = system: NCI/ADR-RES ovarian
HOP-92 NSCLC = system: HOP-92 NSCLC
SK-MEL-5 melanoma = system: SK-MEL-5 melanoma
COLO 205 colon = system: COLO 205 colon
MOLT-4 leukemia = system: MOLT-4 leukemia
IGROV1 ovarian = system: IGROV1 ovarian
NCI-H522 lung = system: NCI-H522 lung
UO-31 renal = system: UO-31 renal
K-562 leukemia = system: K-562 leukemia
MDA-MB-231 breast = system: MDA-MB-231 breast
SW-620 colon = system: SW-620 colon
786-0 renal = system: 786-0 renal
SK-MEL-2 melanoma = system: SK-MEL-2 melanoma
OVCAR-4 ovarian = system: OVCAR-4 ovarian
KM12 colon = system: KM12 colon
UACC-62 melanoma = system: UACC-62 melanoma
NCI-H23 lung = system: NCI-H23 lung
CAKI-1 renal = system: CAKI-1 renal
CCRF-CEM leukemia = system: CCRF-CEM leukemia
T-47D breast = system: T-47D breast
PC-3 prostate = system: PC-3 prostate
DU-145 prostate = system: DU-145 prostate
LOX IMVI melanoma = system: LOX IMVI melanoma
SF-539 CNS = system: SF-539 CNS
RPMI-8226 leukemia = system: RPMI-8226 leukemia
RXF 393 renal = system: RXF 393 renal
U251 CNS = system: U251 CNS
HCC-2998 colon = system: HCC-2998 colon
SNB-75 CNS = system: SNB-75 CNS
HCT-15 colon = system: HCT-15 colon
ACHN renal = system: ACHN renal
OVCAR-8 ovarian = system: OVCAR-8 ovarian

SMILES: CNC(=O)c1c(NC(=O)c2ccc(C(C)(C)C)cc2)sc2c1CCC(=O)C2
- GI50 (UACC-257 melanoma): 824 nM
- TGI (UACC-257 melanoma): 3490 nM
- GI50 (MCF7 breast): 264 nM
- TGI (MCF7 breast): 1330 nM
- GI50 (SR leukemia): 107 nM
- GI50 (SK-OV-3 ovarian): 1400 nM
- TGI (SK-OV-3 ovarian): 6170 nM
- GI50 (EKVX NSCLC): 381 nM
- TGI (EKVX NSCLC): 1700 nM
- GI50 (HS 578T breast): 380 nM
- TGI (HS 578T breast): 3070 nM
- GI50 (A549 NSCLC): 300 nM
- TGI (A549 NSCLC): 1600 nM
- GI50 (NCI-H226 lung): 558 nM
- TGI (NCI-H226 lung): 1990 nM
- GI50 (OVCAR-3 ovarian): 444 nM
- TGI (OVCAR-3 ovarian): 1600 nM
- GI50 (SF-295 CNS): 334 nM
- TGI (SF-295 CNS): 1350 nM
- GI50 (NCI-H460 lung): 352 nM
- TGI (NCI-H460 lung): 1470 nM
- GI50 (TK-10 renal): 374 nM
- TGI (TK-10 renal): 1970 nM
- GI50 (MALME-3M melanoma): 345 nM
- TGI (MALME-3M melanoma): 1590 nM
- GI50 (HOP-62 NSCLC): 835 nM
- TGI (HOP-62 NSCLC): 3320 nM
- GI50 (HT29 colon): 263 nM
- TGI (HT29 colon): 1560 nM
- GI50 (MDA-MB-435): 335 nM
- TGI (MDA-MB-435): 1420 nM
- GI50 (OVCAR-5 ovarian): 341 nM
- TGI (OVCAR-5 ovarian): 1410 nM
- GI50 (HCT-116 colon): 97.1 nM
- TGI (HCT-116 colon): 1400 nM
- GI50 (SNB-19 CNS): 321 nM
- TGI (SNB-19 CNS): 1390 nM
- GI50 (SN12C renal): 333 nM
- TGI (SN12C renal): 1400 nM
- GI50 (M14 melanoma): 346 nM
- TGI (M14 melanoma): 1790 nM
- GI50 (BT-549 breast): 352 nM
- TGI (BT-549 breast): 1680 nM
- GI50 (A498 renal): 647 nM
- TGI (A498 renal): 3620 nM
- GI50 (SK-MEL-28 melanoma): 506 nM
- TGI (SK-MEL-28 melanoma): 1870 nM
- GI50 (SF-268 CNS): 414 nM
- TGI (SF-268 CNS): 1850 nM
- GI50 (HL-60(TB) leukemia): 261 nM
- TGI (HL-60(TB) leukemia): 1580 nM
- GI50 (NCI/ADR-RES ovarian): 313 nM
- TGI (NCI/ADR-RES ovarian): 1290 nM
- GI50 (HOP-92 NSCLC): 358 nM
- TGI (HOP-92 NSCLC): 2030 nM
- GI50 (SK-MEL-5 melanoma): 349 nM
- TGI (SK-MEL-5 melanoma): 1330 nM
- GI50 (COLO 205 colon): 200 nM
- TGI (COLO 205 colon): 462 nM
- GI50 (MOLT-4 leukemia): 314 nM
- TGI (MOLT-4 leukemia): 2050 nM
- GI50 (IGROV1 ovarian): 373 nM
- TGI (IGROV1 ovarian): 1640 nM
- GI50 (NCI-H522 lung): 197 nM
- TGI (NCI-H522 lung): 1410 nM
- GI50 (UO-31 renal): 214 nM
- TGI (UO-31 renal): 819 nM
- GI50 (K-562 leukemia): 65.9 nM
- TGI (K-562 leukemia): > 100000 nM
- GI50 (MDA-MB-231 breast): 300 nM
- TGI (MDA-MB-231 breast): 1130 nM
- GI50 (SW-620 colon): 98.4 nM
- TGI (SW-620 colon): 1270 nM
- GI50 (786-0 renal): 434 nM
- TGI (786-0 renal): 1830 nM
- GI50 (SK-MEL-2 melanoma): 508 nM
- TGI (SK-MEL-2 melanoma): 1960 nM
- GI50 (OVCAR-4 ovarian): 195 nM
- TGI (OVCAR-4 ovarian): 991 nM
- GI50 (KM12 colon): 313 nM
- TGI (KM12 colon): 1340 nM
- GI50 (UACC-62 melanoma): 262 nM
- TGI (UACC-62 melanoma): 1280 nM
- GI50 (NCI-H23 lung): 266 nM
- TGI (NCI-H23 lung): 1240 nM
- GI50 (CAKI-1 renal): 203 nM
- TGI (CAKI-1 renal): 945 nM
- GI50 (CCRF-CEM leukemia): 88.6 nM
- TGI (CCRF-CEM leukemia): > 20100 nM
- GI50 (T-47D breast): 184 nM
- TGI (T-47D breast): 1530 nM
- GI50 (PC-3 prostate): 79.7 nM
- TGI (PC-3 prostate): 1350 nM
- GI50 (DU-145 prostate): 1440 nM
- TGI (DU-145 prostate): 3680 nM
- GI50 (LOX IMVI melanoma): 190 nM
- TGI (LOX IMVI melanoma): 1310 nM
- GI50 (SF-539 CNS): 244 nM
- TGI (SF-539 CNS): 1220 nM
- GI50 (RPMI-8226 leukemia): 55.3 nM
- TGI (RPMI-8226 leukemia): 511 nM
- GI50 (RXF 393 renal): 244 nM
- TGI (RXF 393 renal): 1010 nM
- GI50 (U251 CNS): 143 nM
- TGI (U251 CNS): 1450 nM
- GI50 (HCC-2998 colon): 581 nM
- TGI (HCC-2998 colon): 2040 nM
- GI50 (SNB-75 CNS): 343 nM
- TGI (SNB-75 CNS): 1440 nM
- GI50 (HCT-15 colon): 120 nM
- TGI (HCT-15 colon): 1270 nM
- GI50 (ACHN renal): 203 nM
- TGI (ACHN renal): 922 nM
- GI50 (OVCAR-8 ovarian): 292 nM
- TGI (OVCAR-8 ovarian): 3190 nM
